Measurements taken from patent US20240254140A1, “COMPOUNDS AND THEIR USE IN THE TREATMENT OF BACTERIAL INFECTION” (Hoffmann-La Roche Inc., priority 2021, published 2024).
≈ marks a conversion by molar mass, not a printed value.

Tested on: Escherichia coli ATCC 25922
Assay: Minimal Inhibitory Concentration (MIC) determination, broth microdilution
Assay type: cell-based
Conditions: ATCC25922; strain Escherichia coli ATCC 25922; broth microdilution per CLSI M07-A10; 18-24 hours at 35±2° C.; lowest concentration for complete growth inhibition
Procedure: Minimal Inhibitory Concentration (MIC) Determination:
The MIC of antibacterial compounds against multiple species and strains was determined using the broth microdilution method according to M07-A10 Clinical and Laboratory Standards Institute (CLSI) guidelines, using the appropriate broth medium. In short, the compound plates were prepared by dispensing 100 μL of each stock solution in the first well of a 96 well microtiter plate (MTP) at a concentration 100-fold higher than the final concentration desired in broth. Eleven serial 2-fold dilutions of the highest concentration were made in DMSO for new compounds and in water (or appropriate solution) for reference compounds [2]. 1 μL of each well was transferred in a new MTP, which served as the test plate by subsequent inoculation. This bacterial suspension was prepared from strains that were first sub-cultured on agar plates and incubated for 18-24 hours as appropriate. Following incubation, the inoculum was prepared from isolated colonies and adjusted to 0.5 McFarland turbidity standard (1 to 2×10^8 Colony Forming Units (CFU)/mL) in 0.9% saline. The bacterial suspension was then diluted 1:200 in appropriate sterile medium and within 15 minutes 100 μL/well were dispensed. Negative controls (lack of bacterial cells) and growth control wells (lack of compound) were included in all plates. MTPs were incubated for 18-24 hours at 35±2° C. in ambient air. The MIC value of each compound, expressed as μg/mL, was determined as the lowest concentration required for complete growth inhibition (no visible growth). • [1] CLSI (2015) Methods for dilution antimicrobial susceptibility tests for bacteria that grow aerobically; Approved Standard, Tenth Edition. CLSI Document M7-A10 (ISBN 1-56238-987-4). Wayne, PA: Clinical and Laboratory Standards Institute, 19087, USA. • [2] CLSI (2017) Performance Standards for Antimicrobial Susceptibility Testing; Twenty-Fifth Informational Supplement. CLSI Document M100-S27, CLSI, Wayne, Pennsylvania 19087, USA.
Table 1 provides the Minimal Inhibitory Concentrations (MIC) in micrograms per millilitre of the compounds of present invention obtained against the strain Escherichia coli ATCC 25922.

## COC[C@@H](N)C(=O)Nc1cc(F)c2c(c1)CC(CNCCC1CN(c3cnc4c(n3)NC(=O)CO4)C(=O)O1)C2 (stereo partly drawn) [Example 39, (2R)-2-amino-N-[7-fluoro-2-[[2-[2-oxo-3-(3-oxo-4H-pyrazino[2,3-b][1,4]oxazin-6-yl)oxazolidin-5-yl]ethylamino]methyl]indan-5-yl]-3-methoxy-propanamide]
  MIC: 0.5 µg/mL (≈ 0.92 µM)

## CN(C)CC(=O)Nc1cc(F)c2c(c1)CC(CNCCC1CN(c3cnc4c(n3)NC(=O)CO4)C(=O)O1)C2 (stereo not drawn) [Example 1, 2-(Dimethylamino)-N-[7-fluoro-2-[[2-[2-oxo-3-(3-oxo-4H-pyrazino[2,3-b][1,4]oxazin-6-yl)oxazolidin-5-yl]ethylamino]methyl]indan-5-yl]acetamide]
  MIC: 0.125 µg/mL (≈ 0.237 µM)

## C[C@H](C(=O)Nc1cc(F)c2c(c1)C(F)C(CNCC[C@@H]1CN(c3cnc4c(n3)NC(=O)CO4)C(=O)O1)C2)N(C)C (stereo partly drawn) [Example 67, (2R)—N-[3,7-Difluoro-2-[[2-[(5R)-2-oxo-3-(3-oxo-4H-pyrazino[2,3-b][1,4]oxazin-6-yl)oxazolidin-5-yl]ethylamino]methyl]indan-5-yl]-2-(dimethylamino)propanamide]
  MIC: 0.5 µg/mL (≈ 0.894 µM)

## C[C@@H](C(=O)Nc1cc(F)c2c(c1)CC(CNCCC1CN(c3cnc4c(n3)NC(=O)CO4)C(=O)O1)C2)N(C)C (stereo partly drawn) [Example 9]
  MIC: 0.125 µg/mL (≈ 0.231 µM)

## C[C@H](C(=O)Nc1cc(F)c2c(c1)CC(CNCC[C@@H]1CN(c3cnc4c(n3)NC(=O)CO4)C(=O)O1)C2)N(C)C (stereo partly drawn) [Example 70, (2R)-2-(Dimethylamino)-N-[7-fluoro-2-[[2-[(5R)-2-oxo-3-(3-oxo-4H-pyrazino[2,3-b][1,4]oxazin-6-yl)oxazolidin-5-yl]ethylamino]methyl]indan-5-yl]propanamide]
  MIC: 0.125 µg/mL (≈ 0.231 µM)

## CN1CCC[C@@H]1C(=O)Nc1cc(C#N)c2c(c1)CC(CNCCC1CN(c3cnc4c(n3)NC(=O)CO4)C(=O)O1)C2 (stereo partly drawn) [Example 62, (2R)—N-[7-Cyano-2-[[2-[2-oxo-3-(3-oxo-4H-pyrazino[2,3-b][1,4]oxazin-6-yl)oxazolidin-5-yl]ethylamino]methyl]indan-5-yl]-1-methyl-pyrrolidine-2-carboxamide]
  MIC: ≤ 0.06 µg/mL

## C[C@H](C(=O)Nc1cc(C#N)c2c(c1)CC(O)(CN1CCC3(CC1)CN(c1cnc4c(n1)NC(=O)CO4)C(=O)O3)C2)N(C)C (stereo partly drawn) [Example 35, (2R)-N-[7-cyano-2-hydroxy-2-[[2-oxo-3-(3-oxo-4H-pyrazino[2,3-b][1,4]oxazin-6-yl)-1-oxa-3,8-diazaspiro[4.5]decan-8-yl]methyl]indan-5-yl]-2-(dimethylamino)propanamide]
  MIC: 1 µg/mL (≈ 1.69 µM)

## O=C1COc2ncc(N3CC(CCNCC4Cc5cc(NC(=O)[C@H]6C[C@@H](O)CN6)cc(F)c5C4)OC3=O)nc2N1 (stereo partly drawn) [Example 45]
  MIC: 1 µg/mL (≈ 1.8 µM)

## CN1C[C@H](O)C[C@H]1C(=O)Nc1cc(F)c2c(c1)CC(CN1CCC3(CC1)CN(c1cnc4c(n1)NC(=O)CO4)C(=O)O3)C2 (stereo partly drawn) [Example 64, (2S,4R)—N-[7-Fluoro-2-[[2-oxo-3-(3-oxo-4H-pyrazino[2,3-b][1,4]oxazin-6-yl)-1-oxa-3,8-diazaspiro[4.5]decan-8-yl]methyl]indan-5-yl]-4-hydroxy-1-methyl-pyrrolidine-2-carboxamide]
  MIC: 0.25 µg/mL (≈ 0.42 µM)

## C[C@H](C(=O)Nc1cc(C#N)c2c(c1)CC(CNCC[C@@H]1CN(c3cnc4c(n3)NC(=O)CO4)C(=O)O1)C2)N(C)C (stereo partly drawn) [Example 22, (2R)-N-[7-cyano-2-[[2-[(5R)-2-oxo-3-(3-oxo-4H-pyrazino[2,3-b][1,4]oxazin-6-yl)oxazolidin-5-yl]ethylamino]methyl]indan-5-yl]-2-(dimethylamino)propanamide]
  MIC: 0.125 µg/mL (≈ 0.228 µM)

## CN(C)C1(C(=O)Nc2cc(F)c3c(c2)CC(CNCCC2CN(c4cnc5c(n4)NC(=O)CO5)C(=O)O2)C3)CC1 (stereo not drawn) [Example 2]
  MIC: 1 µg/mL (≈ 1.81 µM)

## CN(C)[C@]1(C(=O)Nc2cc(F)c3c(c2)CC(CNCCC2CN(c4cnc5c(n4)NC(=O)CO5)C(=O)O2)C3)CCOC1 (stereo partly drawn) [Example 19]
  MIC: 2 µg/mL (≈ 3.43 µM)

## C[C@H](C(=O)Nc1cc(F)c2c(c1)C(O)C(CN1CCC3(CC1)CN(c1cnc4c(n1)NC(=O)CO4)C(=O)O3)C2)N(C)C (stereo partly drawn) [Example 65, (2R)-2-(Dimethylamino)-N-[7-fluoro-3-hydroxy-2-[[2-oxo-3-(3-oxo-4H-pyrazino[2,3-b][1,4]oxazin-6-yl)-1-oxa-3,8-diazaspiro[4.5]decan-8-yl]methyl]indan-5-yl]propanamide]
  MIC: 0.5 µg/mL (≈ 0.857 µM)

## CN1C[C@H](O)C[C@H]1C(=O)Nc1cc(F)c2c(c1)CC(CNCCC1CN(c3cnc4c(n3)NC(=O)CO4)C(=O)O1)C2 (stereo partly drawn) [Example 49, (2S,4R)—N-[7-Fluoro-2-[[2-[2-oxo-3-(3-oxo-4H-pyrazino[2,3-b][1,4]oxazin-6-yl)oxazolidin-5-yl]ethylamino]methyl]indan-5-yl]-4-hydroxy-1-methyl-pyrrolidine-2-carboxamide]
  MIC: 0.25 µg/mL (≈ 0.439 µM)

## O=C1COc2ncc(N3CC4(CCN(CC5Cc6cc(NC(=O)[C@@H]7C[C@@H](O)CN7)cc(F)c6C5)CC4)OC3=O)nc2N1 (stereo partly drawn) [Example 42, (2S,4R)—N-[7-fluoro-2-[[2-oxo-3-(3-oxo-4H-pyrazino[2,3-b][1,4]oxazin-6-yl)-1-oxa-3,8-diazaspiro[4.5]decan-8-yl]methyl]indan-5-yl]-4-hydroxy-pyrrolidine-2-carboxamide]
  MIC: 0.125 µg/mL (≈ 0.215 µM)

## O=C(O)C(F)(F)F.O=C1COc2ncc(N3CC4(CCN(CC5Cc6cc(NC(=O)[C@]7(CO)CCCN7)cc(F)c6C5)CC4)OC3=O)nc2N1 (stereo partly drawn) [Example 53, (2R)—N-[7-Fluoro-2-[[2-oxo-3-(3-oxo-4H-pyrazino[2,3-b][1,4]oxazin-6-yl)-1-oxa-3,8-diazaspiro[4.5]decan-8-yl]methyl]indan-5-yl]-2-(hydroxymethyl)pyrrolidine-2-carboxamide; 2,2,2-trifluoroacetic Acid]
  MIC: 0.25 µg/mL

## CN1CCC[C@H]1C(=O)Nc1cc(F)c2c(c1)CC(CNCCC1CN(c3cnc4c(n3)NC(=O)CO4)C(=O)O1)C2 (stereo partly drawn) [Example 10, (2S)-N-[7-fluoro-2-[[2-[2-oxo-3-(3-oxo-4H-pyrazino[2,3-b][1,4]oxazin-6-yl)oxazolidin-5-yl]ethylamino]methyl]indan-5-yl]-1-methyl-pyrrolidine-2-carboxamide]
  MIC: 0.125 µg/mL (≈ 0.226 µM)

## O=C1COc2ncc(N3CC(CCNCC4Cc5cc(NC(=O)[C@@H]6C[C@@H](O)CN6)cc(F)c5C4)OC3=O)nc2N1 (stereo partly drawn) [Example 37, (2S,4R)-N-[7-fluoro-2-[[2-[2-oxo-3-(3-oxo-4H-pyrazino[2,3-b][1,4]oxazin-6-yl)oxazolidin-5-yl]ethylamino]methyl]indan-5-yl]-4-hydroxy-pyrrolidine-2-carboxamide]
  MIC: 0.5 µg/mL (≈ 0.9 µM)

## Cc1cc(NC(=O)CN(C)C)nc2c1CC(CNCCC1CN(c3cnc4c(n3)NC(=O)CO4)C(=O)O1)C2 (stereo not drawn) [Example 24]
  MIC: 0.5 µg/mL (≈ 0.953 µM)

## Cl.N[C@@]1(C(=O)Nc2cc(F)c3c(c2)CC(CNCCC2CN(c4cnc5c(n4)NC(=O)CO5)C(=O)O2)C3)CCOC1 (stereo partly drawn) [Example 41, (3S)-3-amino-N-[7-fluoro-2-[[2-[2-oxo-3-(3-oxo-4H-pyrazino[2,3-b][1,4]oxazin-6-yl)oxazolidin-5-yl]ethylamino]methyl]indan-5-yl]tetrahydrofuran-3-carboxamide; hydrochloride]
  MIC: 1 µg/mL

## C[C@H](C(=O)Nc1cc(F)c2c(c1)CC(CN1CCC3(CC1)CN(c1cnc4c(n1)NC(=O)CO4)C(=O)O3)C2)N(C)C (stereo partly drawn) [Example 7, (2R)-2-(dimethylamino)-N-[7-fluoro-2-[[2-oxo-3-(3-oxo-4H-pyrazino[2,3-b][1,4]oxazin-6-yl)-1-oxa-3,8-diazaspiro[4.5]decan-8-yl]methyl]indan-5-yl]propanamide]
  MIC: 0.25 µg/mL (≈ 0.44 µM)

## N#Cc1cc(NC(=O)[C@@H]2C[C@@H](O)CN2)cc2c1CC(CN1CCC3(CC1)CN(c1cnc4c(n1)NC(=O)CO4)C(=O)O3)C2 (stereo partly drawn) [Example 59, (2S,4R)—N-[7-cyano-2-[[2-oxo-3-(3-oxo-4H-pyrazino[2,3-b][1,4]oxazin-6-yl)-1-oxa-3,8-diazaspiro[4.5]decan-8-yl]methyl]indan-5-yl]-4-hydroxy-pyrrolidine-2-carboxamide]
  MIC: ≤ 0.06 µg/mL

## Cc1cc(NC(=O)CN2CCC2)nc2c1CC(CNCCC1CN(c3cnc4c(n3)NC(=O)CO4)C(=O)O1)C2 (stereo not drawn) [Example 26, 2-(azetidin-1-yl)-N-[4-methyl-6-[[2-[2-oxo-3-(3-oxo-4H-pyrazino[2,3-b][1,4]oxazin-6-yl)oxazolidin-5-yl]ethylamino]methyl]-6,7-dihydro-5H-cyclopenta[b]pyridin-2-yl]acetamide]
  MIC: 0.5 µg/mL (≈ 0.932 µM)

## C[C@@]1(C(=O)Nc2cc(F)c3c(c2)CC(CN2CCC4(CC2)CN(c2cnc5c(n2)NC(=O)CO5)C(=O)O4)C3)C[C@@H](O)CN1 (single isomer, unassigned) [Example 72]
  MIC: 0.5 µg/mL (≈ 0.839 µM)
